Results taken from ChEMBL document CHEMBL1201862, “PubChem BioAssay data set” (2004).
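These data come from cells grown in 96-well plates and exposed to compound for 48 hours at five concentrations. The concentration for 50% growth inhibition is given as GI50.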 Calls of active or inactive are those of the source. No stated cut-off is given here; in the data, active = GI50 up to about 1.1 µM and inactive = higher.

Legend:
Assay in all cases: inhibition of tumour cell growth, NCI panel, 48 h
OVCAR-8 = tested on: OVCAR-8
UACC-257 = tested on: UACC-257
KM12 = tested on: KM12
K562 = tested on: K562
SF-268 = tested on: SF-268
NCI-H226 = tested on: NCI-H226
A498 = tested on: A498
SK-OV-3 = tested on: SK-OV-3
LOX IMVI = tested on: LOX IMVI
SK-MEL-2 = tested on: SK-MEL-2
OVCAR-3 = tested on: OVCAR-3
NCI-H460 = tested on: NCI-H460
HT-29 = tested on: HT-29
RXF 393 = tested on: RXF 393
Malme-3M = tested on: Malme-3M
CCRF-CEM = tested on: CCRF-CEM
HOP-92 = tested on: HOP-92
OVCAR-4 = tested on: OVCAR-4
NCI-H522 = tested on: NCI-H522

Measured: GI50

CCCCCCOc1ccc(NC2=C(Cl)C(=O)c3cccnc3C2=O)cc1
inactive: OVCAR-8 2.03 µM | UACC-257 2.25 µM | KM12 1.61 µM | K562 1.39 µM | SF-268 2.11 µM | NCI-H226 1.74 µM | A498 > 10 µM | SK-OV-3 4.35 µM | LOX IMVI 1.36 µM | SK-MEL-2 1.59 µM | OVCAR-3 1.35 µM | NCI-H460 1.79 µM | HT-29 2.62 µM | RXF 393 1.37 µM | Malme-3M 2.3 µM | CCRF-CEM 1.65 µM | HOP-92 2.02 µM

CCOP(=O)(OCC)C1CCCOC1=O (stereo not given)
inactive: OVCAR-8 > 100 µM | UACC-257 > 100 µM | KM12 > 100 µM | K562 > 100 µM | SF-268 > 100 µM | A498 > 100 µM | SK-OV-3 > 100 µM | LOX IMVI > 100 µM | SK-MEL-2 > 100 µM | OVCAR-3 > 100 µM | NCI-H460 > 100 µM | HT-29 > 100 µM | RXF 393 > 100 µM | Malme-3M > 100 µM | OVCAR-4 > 100 µM | CCRF-CEM > 100 µM

Cc1cc2c(C)nn(Cc3ccc(Cl)cc3)c2c(C#N)c1C
inactive: OVCAR-8 > 100 µM | UACC-257 > 100 µM | SF-268 > 100 µM | NCI-H226 > 100 µM | SK-OV-3 > 100 µM | SK-MEL-2 > 100 µM | OVCAR-3 > 100 µM | RXF 393 45.9 µM | Malme-3M > 100 µM | CCRF-CEM > 100 µM | HOP-92 35.6 µM

C=C(c1ccccc1)c1cc2c(=O)[nH]ccc2n1C
inactive: OVCAR-8 34 µM | UACC-257 37.1 µM | KM12 34.4 µM | K562 13.8 µM | SF-268 33.3 µM | SK-OV-3 26 µM | LOX IMVI 37.2 µM | SK-MEL-2 21.5 µM | OVCAR-3 24.8 µM | NCI-H460 30.1 µM | RXF 393 19.3 µM | Malme-3M 30.1 µM | NCI-H522 16.3 µM | OVCAR-4 35.5 µM | CCRF-CEM 31.3 µM | HOP-92 14.2 µM

C1=CC(=P(c2ccccc2)(c2ccccc2)c2ccccc2)C=C1
inactive: OVCAR-8 4.95 µM | UACC-257 7.48 µM | KM12 9.31 µM | K562 3.45 µM | SF-268 10.3 µM | SK-OV-3 18.2 µM | LOX IMVI 6.5 µM | SK-MEL-2 13.3 µM | OVCAR-3 10.7 µM | NCI-H460 7.83 µM | HT-29 10.6 µM | RXF 393 13.7 µM | Malme-3M 4.75 µM | NCI-H522 3.13 µM | OVCAR-4 13.9 µM | CCRF-CEM 3.42 µM | HOP-92 6.14 µM

c1cncc(CSc2nc3ccccc3nc2-c2cccs2)c1
inactive: OVCAR-8 83.9 µM | UACC-257 > 100 µM | KM12 48.6 µM | K562 39.8 µM | SF-268 7.71 µM | NCI-H226 70 µM | LOX IMVI > 100 µM | SK-MEL-2 87.1 µM | OVCAR-3 20.9 µM | NCI-H460 56 µM | HT-29 57.1 µM | Malme-3M 46.1 µM | NCI-H522 33.4 µM | OVCAR-4 53.6 µM | CCRF-CEM 30.6 µM

N#CC(C(=O)C(=O)Nc1ccccc1)c1ccccc1 (stereo not given)
inactive: UACC-257 > 100 µM | KM12 > 100 µM | K562 > 100 µM | SF-268 > 100 µM | NCI-H226 > 100 µM | SK-OV-3 > 100 µM | LOX IMVI > 100 µM | SK-MEL-2 > 100 µM | OVCAR-3 > 100 µM | HT-29 > 100 µM | Malme-3M > 100 µM | NCI-H522 > 100 µM | CCRF-CEM > 100 µM | HOP-92 > 100 µM

CC1OC(OCC2COC(O)(Oc3c(-c4ccc(O)c(O)c4)oc4cc(O)cc(O)c4c3=O)C(O)C2O)C(O)C(O)C1O (stereo not given)
inactive: OVCAR-8 > 100 µM | UACC-257 > 100 µM | KM12 > 100 µM | K562 > 100 µM | SF-268 > 100 µM | NCI-H226 > 100 µM | A498 > 100 µM | SK-OV-3 > 100 µM | LOX IMVI > 100 µM | OVCAR-3 > 100 µM | NCI-H460 > 100 µM | HT-29 > 100 µM | RXF 393 > 100 µM | Malme-3M > 100 µM | OVCAR-4 > 100 µM | CCRF-CEM > 100 µM | HOP-92 > 100 µM

COc1ccc(NC(=O)CCc2cc(-c3ccc(O)c(OC)c3)nc(NC#N)n2)cc1
inactive: OVCAR-8 > 100 µM | UACC-257 > 100 µM | KM12 > 100 µM | K562 > 100 µM | SF-268 > 100 µM | NCI-H226 > 100 µM | SK-OV-3 > 100 µM | LOX IMVI > 100 µM | SK-MEL-2 > 100 µM | OVCAR-3 > 100 µM | NCI-H460 > 100 µM | HT-29 > 100 µM | RXF 393 > 100 µM | Malme-3M > 100 µM | OVCAR-4 > 100 µM | CCRF-CEM > 100 µM | HOP-92 > 100 µM

COc1cc([N+](=O)[O-])ccc1NC(=O)c1cccc([N+](=O)[O-])c1O
inactive: OVCAR-8 29 µM | UACC-257 17.8 µM | KM12 29.5 µM | K562 20.8 µM | SF-268 32.5 µM | NCI-H226 38.7 µM | A498 17.9 µM | SK-OV-3 23.1 µM | LOX IMVI 22.2 µM | SK-MEL-2 17.5 µM | OVCAR-3 29.4 µM | NCI-H460 27.7 µM | HT-29 25.5 µM | Malme-3M 7.67 µM | NCI-H522 11.6 µM | OVCAR-4 23.4 µM | CCRF-CEM 23.2 µM

COc1ccc(C2ON(c3ccccn3)CC=C2C)cc1 (stereo not given)
inactive: OVCAR-8 > 100 µM | UACC-257 > 100 µM | KM12 > 100 µM | K562 > 100 µM | SF-268 > 100 µM | NCI-H226 > 100 µM | SK-OV-3 > 100 µM | LOX IMVI > 100 µM | SK-MEL-2 > 100 µM | OVCAR-3 > 100 µM | NCI-H460 > 100 µM | HT-29 > 100 µM | RXF 393 > 100 µM | Malme-3M > 100 µM | NCI-H522 47.4 µM | OVCAR-4 > 100 µM | CCRF-CEM > 100 µM

CCOC(=O)C1=C(C)NC2=C(C(=O)N(c3ccccc3)C2c2ccccc2)C1c1ccccc1 (stereo not given)
inactive: OVCAR-8 20.1 µM | UACC-257 18.2 µM | KM12 17.1 µM | K562 29.9 µM | SF-268 15.7 µM | NCI-H226 19.9 µM | SK-OV-3 17.1 µM | LOX IMVI 18.1 µM | SK-MEL-2 17.4 µM | OVCAR-3 12.3 µM | HT-29 19.9 µM | Malme-3M 17.9 µM | NCI-H522 12.6 µM | CCRF-CEM 21.2 µM | HOP-92 11.2 µM

O=C(O)CCSC(=O)Nc1ccc([N+](=O)[O-])cc1
inactive: OVCAR-8 > 100 µM | UACC-257 > 100 µM | KM12 > 100 µM | K562 > 100 µM | SF-268 > 100 µM | A498 > 100 µM | LOX IMVI > 100 µM | SK-MEL-2 > 100 µM | OVCAR-3 > 100 µM | NCI-H460 > 100 µM | HT-29 > 100 µM | RXF 393 > 100 µM | OVCAR-4 > 100 µM | CCRF-CEM > 100 µM

Cc1nn(-c2ccccc2)c(-c2ccccc2[N+](=O)[O-])c1CC#N
inactive: OVCAR-8 > 100 µM | UACC-257 > 100 µM | KM12 > 100 µM | K562 59.2 µM | SF-268 > 100 µM | SK-OV-3 > 100 µM | LOX IMVI > 100 µM | SK-MEL-2 > 100 µM | OVCAR-3 62.1 µM | NCI-H460 > 100 µM | RXF 393 45 µM | Malme-3M 29.4 µM | NCI-H522 22.2 µM | OVCAR-4 > 100 µM | CCRF-CEM > 100 µM | HOP-92 27.8 µM

CCN(/N=C1\CC2C=CCN(C2)C(=O)Cc2c1[nH]c1ccccc21)S(=O)(=O)c1ccc(C)cc1 (stereo not given)
inactive: OVCAR-8 78 µM | UACC-257 94.2 µM | KM12 69.8 µM | K562 71.6 µM | NCI-H226 14.6 µM | LOX IMVI > 100 µM | SK-MEL-2 88.1 µM | Malme-3M > 100 µM | NCI-H522 36.7 µM | OVCAR-4 51.8 µM | CCRF-CEM > 100 µM

C(=C\C(Sc1ccccc1)c1ccccc1)/NNC1=NN=C(c2ccccc2)C(c2ccccc2)N1 (stereo not given)
inactive: OVCAR-8 34.6 µM | UACC-257 > 100 µM | KM12 58.3 µM | K562 13.1 µM | SF-268 > 100 µM | NCI-H226 64.4 µM | SK-OV-3 > 100 µM | LOX IMVI 51.9 µM | SK-MEL-2 74 µM | OVCAR-3 33.4 µM | NCI-H460 30.3 µM | HT-29 12 µM | Malme-3M 50 µM | NCI-H522 33.7 µM | OVCAR-4 83 µM | CCRF-CEM 10.2 µM | HOP-92 16.3 µM

CC1CCC2(NC1)OC1CC3[C@@H]4CC=C5C=CCC[C@]5(C)C4CC[C@]3(C)C1C2C (stereo not given in full)
inactive: OVCAR-8 17.9 µM | UACC-257 22.5 µM | KM12 18.9 µM | K562 18.5 µM | SF-268 28.6 µM | NCI-H226 35.2 µM | A498 69.7 µM | SK-OV-3 25.8 µM | LOX IMVI 17.9 µM | SK-MEL-2 19 µM | OVCAR-3 24.9 µM | NCI-H460 19 µM | HT-29 15.1 µM | RXF 393 18.8 µM | Malme-3M 18.5 µM | OVCAR-4 18.2 µM | CCRF-CEM 21 µM | HOP-92 19.7 µM
